Measurements taken from patent publication US20100311748A1, “HETEROCYCLIC AMIDES USEFUL FOR THE TREATMENT OF CANCER AND PSORIASIS” (ASTRAZENECA AB, priority 2007, published 2010).

Each compound was assayed on Hedgehog pathway (assay: Hedgehog Pathway Cellular Differentiation Assay (alkaline phosphatase production in C3H10T1/2 cells with Shh ligand)). Conditions: Mus musculus, C3H 10T1/2, 3 μM compound, Shh ligand conditioned media, 72 h, alkaline phosphatase.
Type: cell-based
Method: Hedgehog Pathway Cellular Differentiation Assay The ability of compounds of the invention to inhibit the Hedgehog pathway can be determined by the following cell differentiation assay. C3H10T1/2 cells were plated into 384 well plates at a concentration of 5000 cells/well in DMEM/10% FBS. The following day the media was changed to 20% conditioned media (low serum media DMEM/2% FBS+Shh ligand). Compounds were solubilized in 100% DMSO to a concentration of 10 mM and then serially diluted three fold in 100% DMSO. The highest concentration in the cell plate was 30 μM and the lowest was 3 nM. The compounds were then added to the cells. Cell plates were incubated with the compound for 72 h and then assayed for alkaline phosphatase production using pNp as a substrate. Briefly, after 72 h of incubation, the media was aspirated from the cells and washed with 30 μl of PBS. PBS was aspirated off the cells and 15 μl of 1×RIPA cell lysis buffer is added on to the cells. The cell plates are then incubated at −80° C. for 30 minutes to insure proper cell lysis. The plates were then thawed back to RT. The substrate solution containing pNp at 1 mg/mL in diethanolamine buffer pH 9.8 was then added onto the lysed cells. The plates were incubated at 30° C. for color development and read at an absorbance of 405 nm. The percent inhibition and IC50 value was then calculated from the absorbance data using standard procedures.

Row | SMILES | inhibition at 3 µM [%]
1 | Cc1ccc(-c2nccn2C)cc1NC(=O)c1ccc(OCc2ccc(F)cc2C#N)cc1 [Example 100, 4-[(2-cyano-4-fluorobenzyl)oxy]-N-[2-methyl-5-(1-methyl-1H-imidazol-2-yl)phenyl]benzamide] | 82.7
2 | Cc1ccc(-c2c[nH]cn2)cc1NC(=O)c1ccc(OCc2ccccn2)cc1 [Example 1, N-[5-(1H-imidazol-4-yl)-2-methyl-phenyl]-4-(pyridin-2-ylmethoxy)benzamide] | 64.9
3 | Cc1ccc(-c2ccc(N)nn2)cc1NC(=O)c1ccc(OCc2ccccn2)cc1 [Example 15, N-[5-(6-aminopyridazin-3-yl)-2-methyl-phenyl]-4-(pyridin-2-ylmethoxy)benzamide] | 80.7
4 | Cc1ccc(-c2ncc[nH]2)cc1NC(=O)c1ccc(C(F)(F)F)nc1 [Example 150, N-[5-(1H-imidazol-2-yl)-2-methyl-phenyl]-6-(trifluoromethyl)pyridine-3-carboxamide] | 19.4
5 | Cc1ccc(-c2nccn2C)cc1NC(=O)c1ccc(OCc2ccc(Br)cc2C#N)cc1 [Example 99, 4-[(4-bromo-2-cyanobenzyl)oxy]-N-[2-methyl-5-(1-methyl-1H-imidazol-2-yl)phenyl]benzamide] | 29.9
6 | Cc1cn(C)c(-c2ccc(C)c(NC(=O)c3ccc(OCc4cccc(OCCN5CCOCC5)c4)cc3)c2)n1 [Example 66, N-[5-(1,4-dimethyl-1H-imidazol-2-yl)-2-methylphenyl]-4-{[3-(2-morpholin-4-ylethoxy)benzyl]oxy}benzamide] | 69.6
7 | Cc1ccc(-c2ncc(CN3CCN(C)CC3)s2)cc1NC(=O)c1ccc(OCc2ccccn2)cc1 [Example 2, N-[2-methyl-5-[5-[(4-methylpiperazin-1-yl)methyl]1,3-thiazol-2-yl]phenyl]-4-(pyridin-2-ylmethoxy)benzamide] | 72.3
8 | Cc1ccc(-c2c[nH]nn2)cc1NC(=O)c1ccc(OCc2ccccn2)cc1 [Example 114, N-(2-methyl-5-(1H-1,2,3-triazol-4-yl)phenyl)-4-(pyridin-2-ylmethoxy)benzamide] | 73.2
9 | COc1ccc(COc2ccc(C(=O)Nc3cc(-c4ncc[nH]4)ccc3C)cc2)nc1 [Example 130, N-(5-(1H-imidazol-2-yl)-2-methylphenyl)-4-((5-methoxypyridin-2-yl)methoxy)benzamide] | 91.9
10 | COc1ccnc(COc2ccc(C(=O)Nc3cc(-c4ncc[nH]4)ccc3C)cc2)c1 [Example 92, N-[5-(1H-imidazol-2-yl)-2-methylphenyl]-4-[(4-methoxypyridin-2-yl)methoxy]benzamide] | 76
11 | Cc1ccc(-c2ncc[nH]2)cc1NC(=O)c1ccc(OCc2ncccc2N2CCOCC2)cc1 [Example 137, N-(5-(1H-imidazol-2-yl)-2-methylphenyl)-4-((3-morpholinopyridin-2-yl)methoxy)benzamide] | 76.5
12 | Cc1cnc(-c2ccc(C)c(NC(=O)c3ccc(OCc4ccccn4)cc3)c2)[nH]1 [Example 25, N-[2-methyl-5-(5-methyl-1H-imidazol-2-yl)phenyl]-4-(pyridin-2-ylmethoxy)benzamide] | 79.5
13 | COc1ccc(C(=O)Nc2cc(-c3ncc[nH]3)ccc2C)cc1OC [Example 154, N-[5-(1H-imidazol-2-yl)-2-methyl-phenyl]-3,4-dimethoxy-benzamide] | 17.6
14 | Cc1ccc(-c2ncc[nH]2)cc1NC(=O)c1ccc(NCc2ccc(N3CCOCC3)cn2)cc1 [Example 140, N-(5-(1H-imidazol-2-yl)-2-methylphenyl)-4-((5-morpholinopyridin-2-yl)methylamino)benzamide] | 85.5
15 | Cc1ccc(-c2cnc(N)cn2)cc1NC(=O)c1ccc(OCc2ccccn2)cc1 [Example 10, N-[5-(5-aminopyrazin-2-yl)-2-methyl-phenyl]-4-(pyridin-2-ylmethoxy)benzamide] | 63.5
16 | Cc1ccc(-c2nccn2C)cc1NC(=O)c1ccc(OCc2cc(F)ccc2C#N)cc1 [Example 101, 4-[(2-cyano-5-fluorobenzyl)oxy]-N-[2-methyl-5-(1-methyl-1H-imidazol-2-yl)phenyl]benzamide] | 83.5
17 | Cc1ccc(-c2nc3ccccc3s2)cc1NC(=O)c1ccc(OCc2ccccn2)cc1 [Example 17, N-(5-benzothiazol-2-yl-2-methyl-phenyl)-4-(pyridin-2-ylmethoxy)benzamide] | 53.5
18 | Cc1ccc(-c2cn3ccsc3n2)cc1NC(=O)c1ccc(OCc2ccccn2)cc1 [Example 5, N-[2-methyl-5-(4-thia-1,6-diazabicyclo[3.3.0]octa-2,5,7-trien-7-yl)phenyl]-4-(pyridin-2-ylmethoxy)benzamide] | 68.8

Row | SMILES | inhibition at 3 µM [%]
19 | Cc1ccc(-c2nc(CO)c[nH]2)cc1NC(=O)c1ccc(OCc2ccccn2)cc1 [Example 88, N-{5-[4-(hydroxymethyl)-1H-imidazol-2-yl]-2-methylphenyl}-4-(pyridin-2-ylmethoxy)benzamide] | 84.7
20 | Cc1ccc(-c2nc(-c3nccs3)c[nH]2)cc1NC(=O)c1ccc(OCc2ccccn2)cc1 [Example 82, N-{2-methyl-5-[4-(1,3-thiazol-2-yl)-1H-imidazol-2-yl]phenyl}-4-(pyridin-2-ylmethoxy)benzamide] | 68.6
21 | Cc1ccc(-c2ncc[nH]2)cc1NC(=O)c1ccc(OCc2ccccc2C#N)cc1 [Example 46, 4-[(2-cyanophenyl)methoxy]-N-[5-(1H-imidazol-2-yl)-2-methyl-phenyl]benzamide] | 81.9
22 | Cc1cc(C)c(-c2cn(C)c(C)n2)cc1NC(=O)c1ccc(OCc2ccccn2)cc1 [Example 73, N-(5-(1,2-dimethyl-1H-imidazol-4-yl)-2,4-dimethylphenyl)-4-(pyridin-2-ylmethoxy)benzamide] | 85.8
23 | Cc1cc(C)c(-c2ncc(C)n2C)cc1NC(=O)c1ccc(OCc2ccccn2)cc1 [Example 69, N-[5-(1,5-dimethyl-1H-imidazol-2-yl)-2,4-dimethylphenyl]-4-(pyridin-2-ylmethoxy)benzamide] | 83.9
24 | Cc1ccc(-c2ncc[nH]2)cc1NC(=O)c1ccc(OCc2ncccc2O)cc1 [Example 144, N-(5-(1H-imidazol-2-yl)-2-methylphenyl)-4-((3-hydroxypyridin-2-yl)methoxy)benzamide] | 8.8
25 | Cc1ccc(-c2nc[nH]c2C)cc1NC(=O)c1ccc(OCc2ccccc2C#N)cc1 [Example 54, 4-[(2-cyanophenyl)methoxy]-N-[2-methyl-5-(5-methyl-1H-imidazol-4-yl)phenyl]benzamide] | 77.5
26 | Cc1ccc(-c2ncc(CN3CCOCC3)s2)cc1NC(=O)c1ccc(OCc2ccccn2)cc1 [Example 12, N-[2-methyl-5-[5-(morpholin-4-ylmethyl)1,3-thiazol-2-yl]phenyl]-4-(pyridin-2-ylmethoxy)benzamide] | 74.2
27 | Cc1ccc(-c2ncc[nH]2)cc1NC(=O)c1ccc(OCc2cccc(OCCN(C)C)n2)cc1 [Example 124, N-(5-(1H-imidazol-2-yl)-2-methylphenyl)-4-((6-(2-(dimethylamino)ethoxy)pyridin-2-yl)methoxy)benzamide] | 46.8
28 | COc1cc(COc2ccc(C(=O)Nc3cc(-c4nccn4C)ccc3C)cc2)cc(OC)c1 [Example 50, 4-[(3,5-dimethoxyphenyl)methoxy]-N-[2-methyl-5-(1-methylimidazol-2-yl)phenyl]benzamide] | 80.5
29 | Cc1ccc(-c2cnn(CC(C)C)c2)cc1NC(=O)c1ccc(OCc2ccccn2)cc1 [Example 36, N-[2-methyl-5-[1-(2-methylpropyl)pyrazol-4-yl]phenyl]-4-(pyridin-2-ylmethoxy)benzamide] | 26.9
30 | Cc1ccc(-c2ncc[nH]2)cc1NC(=O)c1ccc(OCc2ncccc2Br)cc1 [Example 120, 4-[(3-bromopyridin-2-yl)methoxy]-N-[5-(1H-imidazol-2-yl)-2-methylphenyl]benzamide] | 78.3
31 | Cc1ccc(-c2ncc[nH]2)cc1NC(=O)c1ccc(OCc2cccc(C#N)c2)cc1 [Example 61, 4-[(3-cyanobenzyl)oxy]-N-[5-(1H-imidazol-2-yl)-2-methylphenyl]benzamide] | 82.1
32 | Cc1nc(C)c(-c2ccc(C)c(NC(=O)c3ccc(OCc4ccccn4)cc3)c2)s1 [Example 32, N-[5-(2,4-dimethyl1,3-thiazol-5-yl)-2-methyl-phenyl]-4-(pyridin-2-ylmethoxy)benzamide] | 54.1
33 | Cc1ccc(-c2ncc[nH]2)cc1NC(=O)c1ccc(NC(C)c2ccccn2)cc1 (centres unmarked) [Example 118, N-[5-(1H-imidazol-2-yl)-2-methylphenyl]-4-[(1-pyridin-2-ylethyl)amino]benzamide] | 75.4
34 | Cc1ccc(-c2ncc[nH]2)cc1NC(=O)c1ccc(OCc2ccc(F)cc2)cc1 [Example 59, 4-[(4-Fluorophenyl)methoxy]-N-[5-(1H-imidazol-2-yl)-2-methylphenyl]benzamide] | 82.5
35 | Cc1ccc(-c2ncc[nH]2)cc1NC(=O)c1ccc(OCc2cccc(N3CCN(C)CC3)n2)cc1 [Example 128, N-(5-(1H-imidazol-2-yl)-2-methylphenyl)-4-((6-(4-methylpiperazin-1-yl)pyridin-2-yl)methoxy)benzamide] | 81.5
